# pIC50: −log10 of the molar value.
# Assays:
# CRBN proteins = CRBN proteins (Homo sapiens (Human), UniProt Q96SW2); assay: CRBN affinity test; format: binding; conditions: purified CRBN proteins expressed in E. coli
# Method: First, CRBN proteins were expressed in E. coli and purified, and then the purified CRBN proteins were dissolved in a buffer solution (PBS). […] After the mixture was sufficiently mixed and reacted, the binding strength at each concentration was measured to collect data, and a binding curve was created therefrom (see FIG. 13), and the KD (equilibrium dissociation constant) values were derived therefrom (see Table 9 and FIG. 14).
# [1] = Single dose toxicity study; format: in vivo; conditions: rats
# Method: The toxicity of AST-DT-218 at a single dose was evaluated. First, healthy adult male and female rats were prepared and then fasted for 12 hours before the experiment. Solutions were prepared for each dose group (0 mg/kg, 500 mg/kg, 1,000 mg/kg, and 2,000 mg/kg), and the final solution volume was set at 40 mL/kg.
# For […] to 15 days after administration, clinical symptoms (e.g., colored stool, hairloss, etc.), changes in weight, changes in food consumption, and changes in organ weight were observed, and ophthalmic examinations were performed and autopsies were performed.
# SNU449 = assay: HCC cell survival by cell nuclear staining, 24 hours, SNU449; format: cell-based; conditions: Homo sapiens, SNU-449
# Method: (§1) An indication expansion experiment was performed to evaluate the potential of AST-DT-218 for treating hepatocellular carcinoma (HCC). First, HCC cell lines (Huh7, Hep3B, SNU449, and SNU475) were prepared, and AST-DT-218 and Sorafenib were at the highest concentration of 50 μM, serially diluted by half starting therefrom, thereby preparing 10 concentrations (50 μM, 25 μM, 12.5 μM, etc.). HCC cell lines (Huh7, Hep3B, SNU449, SNU475) were seeded into 96-well plates, in which each well was treated with AST-DT-218 and Sorafenib solutions, and the cells were cultured in an incubator for 24 hours. Then, the cell survival at each concentration was evaluated by measuring the cell count using cell nuclear staining, and a concentration-response curve of cell survival was created based on the data, and the IC50 value was derived.
# A375 = assay: Dose response curve, cell survival, 48 hours, A375; format: cell-based; conditions: Homo sapiens, A-375, Malignant Melanoma, read-out: IC50 of AST-DT-218, A375
# Method: (§2) A DRC was created to determine whether AST-DT-218 is effective in killing various cancer cells. First, hepatoma cell lines (Huh7 and Hep3B), non-small cell lung cancer cell lines (NCI-H460 and NCI-H1299), pancreatic cancer cell lines (PANC-1 and Mia-Paca-2), rectal cancer cell lines (HT29 and HCT116), a gastric adenocarcinoma cell line (AGS), a malignant melanoma cell line (A375), and an adenocarcinoma cell line (MDA-MB-231) were prepared. Each cell line was cultured in a flask, and the cells which reached the logarithmic growth phase were prepared, washed with PBS, harvested with trypsin, centrifuged to adjust the cell density, and then resuspended in an appropriate culture medium, and plated into 96-well plates. After culturing until the cells attached to the plates and stabilized, AST-DT-218 and controls (lenalidomide and pomalidomide) were prepared and diluted to various concentrations (10-point by diluting by half from the highest concentration of 50 μM). […] After completion of the culture, cell survival was assessed using a cell counting method through cell nuclear staining. Data were collected by measuring cell survival at each concentration, and then DRC was created (see FIGS. 5 to 12) and IC50 values were calculated (see Table 8).
# PANC-1 = assay: Dose response curve, cell survival, 48 hours, PANC-1; format: cell-based; conditions: Homo sapiens, Pancreatic Carcinoma, read-out: IC50 of AST-DT-218, PANC-1
# Method: as §2
# MDA-MB-231 = assay: Dose response curve, cell survival, 48 hours, MDA-MB-231; format: cell-based; conditions: Homo sapiens, Adenocarcinoma, read-out: IC50 of AST-DT-218, MDA-MB-231
# Method: as §2
# TA98 strain = system: TA98 strain
# Method: (§3) First, TA98 and TA 100 strains, which detect frameshift mutations and point mutations, respectively, were cultured. Then, AST-DT-218 was dissolved in a solvent and diluted to various concentrations (20.5 μg/mL, 61.7 μg/mL 185.1 μg/mL, […], 1666.6 μg/mL, and 5000 μg/mL) to prepare an […] (a metabolic activation system; concentration: 30%) including liver enzyme extracts and supplements. Into a histidine-deficient medium at different concentrations of AST-DT-218, (i) the TA98 strain was inoculated without the […] (TA98−S9), (ii) the TA98 strain was inoculated by mixing it with the […] (TA98+S9), (iii) the TA100 strain was inoculated without the […] (TA100−S9), and (iv) the TA100 strain was inoculated by mixing it with the S9 mixture (TA100+S9). As a solvent control, which is a negative control, only the solvent was inoculated into a histidine-deficient medium, and only a pure solvent was used in the absence of any compound. […] After culturing for 48 to 72 hours in each medium, the number of colonies generated was counted to calculate the mutation rate, and the mutagenic effect was compared depending on the presence or absence of the S9 mixture to analyze the effect on metabolic activation.
# TA100 strain = system: TA100 strain
# Method: as §3
# hERG channel [2] = biological target: T1, hERG channel (Homo sapiens (Human), UniProt Q12809); assay: hERG ligand binding assay; conditions: membranes of hERG channel-expressing HEK293 cell line
# T1 sequence (Q12809 whole entry): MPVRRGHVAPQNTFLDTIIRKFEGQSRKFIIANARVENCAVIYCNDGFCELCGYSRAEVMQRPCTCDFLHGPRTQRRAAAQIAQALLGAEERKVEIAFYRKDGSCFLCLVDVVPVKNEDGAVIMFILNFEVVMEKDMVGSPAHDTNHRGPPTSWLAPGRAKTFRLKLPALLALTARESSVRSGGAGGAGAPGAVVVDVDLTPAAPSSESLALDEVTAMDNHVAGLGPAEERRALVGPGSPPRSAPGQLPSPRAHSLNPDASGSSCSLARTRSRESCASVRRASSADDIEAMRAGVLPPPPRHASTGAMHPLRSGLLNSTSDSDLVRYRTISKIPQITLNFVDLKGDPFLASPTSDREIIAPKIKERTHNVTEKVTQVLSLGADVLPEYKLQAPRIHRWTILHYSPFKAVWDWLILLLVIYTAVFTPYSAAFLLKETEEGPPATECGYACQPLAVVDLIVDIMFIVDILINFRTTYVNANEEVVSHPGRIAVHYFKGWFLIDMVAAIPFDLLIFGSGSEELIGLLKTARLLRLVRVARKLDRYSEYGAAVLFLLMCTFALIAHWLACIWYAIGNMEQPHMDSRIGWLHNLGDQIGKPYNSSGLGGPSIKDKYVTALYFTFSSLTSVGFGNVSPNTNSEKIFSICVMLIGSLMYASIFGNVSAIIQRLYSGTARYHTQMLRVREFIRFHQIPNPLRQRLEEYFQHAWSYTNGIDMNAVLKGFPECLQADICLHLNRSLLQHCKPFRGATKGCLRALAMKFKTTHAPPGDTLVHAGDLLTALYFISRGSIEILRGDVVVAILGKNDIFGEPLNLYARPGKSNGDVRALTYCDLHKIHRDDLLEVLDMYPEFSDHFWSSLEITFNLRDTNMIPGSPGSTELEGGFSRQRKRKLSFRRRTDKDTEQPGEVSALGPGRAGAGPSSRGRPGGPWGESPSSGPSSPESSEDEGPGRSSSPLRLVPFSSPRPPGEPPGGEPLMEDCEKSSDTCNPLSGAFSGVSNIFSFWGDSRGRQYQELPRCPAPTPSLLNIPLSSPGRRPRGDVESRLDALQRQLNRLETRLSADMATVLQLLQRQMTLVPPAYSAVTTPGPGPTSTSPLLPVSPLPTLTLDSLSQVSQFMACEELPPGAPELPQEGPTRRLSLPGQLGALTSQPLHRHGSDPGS
# Method: Additionally, a ligand binding assay was performed to measure the affinity of AST-DT-218 that binds to the hERG channel. First, a hERG channel-expressing cell line (HEK293) was cultured, and then the cells were centrifuged to extract the cell membrane, and membrane proteins were prepared using a cell lysis reagent. A labeled hERG ligand was prepared and AST-DT-218 was dissolved in a solvent (DMSO) and diluted to a concentration (1 μM). After dispensing the cell membrane proteins into a 96-well plate or appropriate experimental equipment, competitive binding experiments were performed by adding AST-DT-218 at various concentrations to each well and incubated for 1 to 2 hours. After completion of the binding, the unbound ligands were washed using a recovery solution to separate the same, the extent of ligand binding was measured using a radiation detection device or fluorescence reader, and the signal intensities were analyzed to calculate the ligand binding inhibition ratio. The degree of binding inhibition according to the concentration of AST-DT-218 was plotted to derive the IC50 value.
# NCI-H460 = assay: Dose response curve, cell survival, 48 hours, NCI-H460; format: cell-based; conditions: Homo sapiens, Non-Small Cell Lung Cancer, read-out: IC50 of AST-DT-218, NCI-H460
# Method: as §2
# Huh7 [3] = assay: Dose response curve, cell survival, 48 hours, Huh7; format: cell-based; conditions: Homo sapiens, Huh-7, Hepatocellular Carcinoma, read-out: IC50 of AST-DT-218, Huh7
# Method: as §2
# Hep3B [4] = assay: HCC cell survival by cell nuclear staining, 24 hours, Hep3B; format: cell-based; conditions: Homo sapiens
# Method: as §1
# Huh7 [5] = assay: HCC cell survival by cell nuclear staining, 24 hours, Huh7; format: cell-based; conditions: Homo sapiens, Huh-7
# Method: as §1
# HT29 = assay: Dose response curve, cell survival, 48 hours, HT29; format: cell-based; conditions: Homo sapiens, HT-29, Colorectal Carcinoma, read-out: IC50 of AST-DT-218, HT29
# Method: as §2
# NCI-H1299 = assay: Dose response curve, cell survival, 48 hours, NCI-H1299; format: cell-based; conditions: Homo sapiens, Non-Small Cell Lung Cancer, read-out: IC50 of AST-DT-218, NCI-H1299
# Method: as §2
# Hep3B [6] = assay: Dose response curve, cell survival, 48 hours, Hep3B; format: cell-based; conditions: Homo sapiens, Hepatocellular Carcinoma, read-out: IC50 of AST-DT-218, Hep3B
# Method: as §2
# Mia-Paca-2 = assay: Dose response curve, cell survival, 48 hours, Mia-Paca-2; format: cell-based; conditions: Homo sapiens, Pancreatic Carcinoma, read-out: IC50 of AST-DT-218, Mia-Paca-2
# Method: as §2
# SNU475 = assay: HCC cell survival by cell nuclear staining, 24 hours, SNU475; format: cell-based; conditions: Homo sapiens, SNU-475
# Method: as §1
# [7] = Maximum tolerated dose (MTD) test; format: in vivo; conditions: mice, daily injection day 1 to day 5, highest dose 20 mg/kg
# Method: The in vivo maximum tolerated dose (MTD) of AST-DT-218 was evaluated to determine the highest dose at which AST-DT-218 could be safely administered to experimental animals. First, the compound AST-DT-218 and the preparation solvent to be used in the experiment were prepared. The solvent was a mixture of 5% Tween 80, 40% PEG400, 10% DMSO, and 45% DPBS, and AST-DT-218 was prepared according to each dose as shown in Table 6 below. Mice (n=5) to be used in the experiment were prepared and divided into five groups to perform the experiment. The control group was injected with only 0 mg/kg of the solvent, and the remaining groups were injected with the AST-DT-218 solution at 2.5 mg/kg, 5 mg/kg, 10 mg/kg, and 20 mg/kg, respectively, and the injection amount was set to 0.1 mL for a 20 g mouse.
# From day 1 to day 5, the injections were administered at the same time daily, and the changes in weight and abnormal behaviors of the mice were observed and data were collected during the experiment.
# HCT116 = assay: Dose response curve, cell survival, 48 hours, HCT116; format: cell-based; conditions: Homo sapiens, HCT-116, Colorectal Carcinoma, read-out: IC50 of AST-DT-218, HCT116
# Method: as §2
# AGS = assay: Dose response curve, cell survival, 48 hours, AGS; format: cell-based; conditions: Homo sapiens, Gastric Adenocarcinoma, read-out: IC50 of AST-DT-218, AGS
# Method: as §2
# hERG channel [8] = biological target: T1, hERG channel; assay: hERG-related cardiotoxicity test using automated patch clamp; format: cell-based; conditions: hERG channel-expressing CHO cell line
# Method: In order to evaluate the inhibitory effect of AST-DT-218 on the hERG channel and determine its potential to induce cardiotoxicity, a hERG-related cardiotoxicity test using an automated patch clamp was performed. First, a hERG channel-expressing cell line (CHO) was cultured, and AST-DT-218 was dissolved in a solvent (DMSO) and diluted to a concentration (1 μM). Cells were mounted on a patch-clamp device, and the electrical activity of hERG channels was recorded by measuring voltage-dependent currents. The inhibitory effect was calculated as the current reduction ratio, and the IC50 value was derived by constructing a concentration-response curve.
# TA98 and TA100 strains = conditions: positive controls
# Method: as §3
# Chain of CRBN proteins (Q96SW2 whole entry): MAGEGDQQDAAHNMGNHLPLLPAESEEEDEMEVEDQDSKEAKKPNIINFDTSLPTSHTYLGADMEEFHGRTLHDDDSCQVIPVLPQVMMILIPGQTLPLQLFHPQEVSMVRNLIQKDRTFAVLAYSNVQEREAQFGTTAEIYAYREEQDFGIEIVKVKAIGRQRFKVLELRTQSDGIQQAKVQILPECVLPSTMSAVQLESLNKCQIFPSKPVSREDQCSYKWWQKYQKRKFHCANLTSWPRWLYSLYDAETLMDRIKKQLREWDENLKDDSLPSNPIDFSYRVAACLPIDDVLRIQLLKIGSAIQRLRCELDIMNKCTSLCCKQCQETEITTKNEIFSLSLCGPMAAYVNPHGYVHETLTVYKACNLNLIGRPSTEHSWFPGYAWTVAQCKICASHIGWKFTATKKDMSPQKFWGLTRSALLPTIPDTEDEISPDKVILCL
smiles,measurement,setting,value
"CCCC(C)Nc1cccc2c1C(=O)N(C1CCC(=O)NC1=O)C2=O (stereo in doubt) [AST-DT-135, 2-(2,6-dioxopiperidin-3-yl)-4-(((S)-pentan-2-yl)amino)isoindoline-1,3-dione]",Kd,CRBN proteins,29 nM
"COc1ccc([C@@H](C)Nc2cccc3c2C(=O)N(C2CCC(=O)NC2=O)C3=O)cc1 (stereo partly drawn) [AST-DT-218, 2-(2,6-dioxopiperidin-3-yl)-4-(((R)-1-(4-methoxyphenyl)ethyl)amino)isoindoline-1,3-dione]","changes in clinical symptoms, body weight, food consumption, ophthalmological examination, organ weights, and autopsies","[1]; single oral dose up to 2,000 mg/kg, 15 days observation",no toxicologically significant changes
same,Clinical Signs,"[1]; single p.o. dose 500 mg/kg, all animals, day 2",colored stool
same,Clinical Signs,"[1]; single p.o. dose 1,000 mg/kg, all animals, day 2",colored stool
same,Clinical Signs,"[1]; single p.o. dose 2,000 mg/kg, all animals, day 2",colored stool
same,Clinical Signs,"[1]; single p.o. dose 2,000 mg/kg, animal #19, day 14-15",loss of fur
same,Clinical Signs,"[1]; single p.o. dose 2,000 mg/kg, animal #40, day 3",colored stool
same,Clinical Signs,"[1]; single p.o. dose 2,000 mg/kg, animals #18 to #20, day 3",colored stool
same,pIC50,SNU449,6.81
same,pIC50,A375,6.64
same,pIC50,PANC-1,6.17
same,pIC50,MDA-MB-231,6.20
same,number of mutant colonies,"TA98 strain; TA98, regardless of presence or absence of S9 mixture",no significant increase
same,Mutagenic Data Points w/ S9,"TA98 strain; TA98, test conc. 20.5-5,000 μg/mL, with S9",No
same,Mutagenic Data Points w/o S9,"TA98 strain; TA98, test conc. 20.5-5,000 μg/mL, without S9",No
same,number of mutant colonies,"TA100 strain; TA100, regardless of presence or absence of S9 mixture",no significant increase
same,Mutagenic Data Points w/ S9,"TA100 strain; TA100, test conc. 20.5-5,000 μg/mL, with S9",No
same,Mutagenic Data Points w/o S9,"TA100 strain; TA100, test conc. 20.5-5,000 μg/mL, without S9",No
same,possibility of causing cardiotoxicity (hERG ligand binding),hERG channel [2],low possibility of causing cardiotoxicity
same,pIC50,NCI-H460,6.62
same,pIC50,Huh7 [3],6.16
same,Kd,CRBN proteins,16 nM
same,pIC50,Hep3B [4],6.42
same,pIC50,Huh7 [5],6.12
same,pIC50,HT29,6.47
same,pIC50,NCI-H1299,6.41
same,pIC50,Hep3B [6],6.05
same,pIC50,Mia-Paca-2,6.53
same,pIC50,SNU475,5.84
same,weight loss or abnormal behavior,[7],no weight loss or abnormal behavior
same,pIC50,HCT116,6.73
same,pIC50,AGS,6.60
same,possibility of causing cardiotoxicity (hERG patch clamp),hERG channel [8],low possibility of causing cardiotoxicity
"C[C@H](CO)Nc1cccc2c1C(=O)N(C1CCC(=O)NC1=O)C2=O (stereo partly drawn) [AST-DT-220, 2-(2,6-dioxopiperidin-3-yl)-4-(((R)-1-hydroxypropan-2-yl)amino)isoindoline-1,3-dione]",Kd,CRBN proteins,52 nM
"Nc1ccc2cc3ccccc3cc2c1 [Example 2-AA, 2-aminoanthracene]",number of mutant colonies,TA98 and TA100 strains,significant increase
"O=[N+]([O-])c1ccc2c(c1)Cc1ccccc1-2 [Example 2-NF, 2-nitrofluorene]",number of mutant colonies,TA98 and TA100 strains,significant increase
"CNC(=O)c1cc(Oc2ccc(NC(=O)Nc3ccc(Cl)c(C(F)(F)F)c3)cc2)ccn1 [Sorafenib, reference compound]",pIC50,SNU449,4.95
same,pIC50,Hep3B [4],5.25
same,pIC50,Huh7 [5],5.36
